Data set [1] concerns rat platelet-rich plasma (ADP-induced platelet aggregation). Briefly: Anti-platelet aggregation activity in vitro (Born's method), rat platelet-rich plasma, ADP-induced. The data set is classed as cell-based. How it is done:
Preparations (A), (B), (C), (D), (E) and (F) were administered "in vivo" orally and/or parenterally in 0.5% carboxymethylcellulose suspensions in physiological saline at neutral pH. When tested "in vitro", they were finely dispersed in neutral pH physiological saline.
This was studied "in vitro" following Born's method (Born G. W. R., Nature, 194, 937 (1962)) and inducing platelet aggregation with ADP.
Platelet-rich plasma was obtained by centrifugation for 10 minutes at 2,000 rpm of 9 parts rat blood to 1 part 3.13% sodium citrate solution. In performing the aggregation test, 0.2 ml of platelet rich plasm was mixed with a 0.9% NaCl solution to which the test substance was added to a final volume of 0.6 ml; the resulting mixture was incubated at 27° C. for 3 minutes. After inducement with ADP, aggregation was measured continuously with an Elvi 840 Aggregometer (Elvi Logos-Milan) to follow its course. The anti-aggregant effects were determined from the difference in the light transmission of the sample with respect to an ADP control.
Table I reports the platelet aggregation inhibition using different doses of the test compounds at a constant ADP concentration.

Data set [2] concerns human platelet aggregation (PRP). Briefly: Human platelet aggregation in vitro induced by ADP, adrenalin, collagen or arachidonate. The data set is classed as cell-based. How it is done:
Blood samples (20 ml) were obtained by venal puncture of the antecubital fossa using plastic syringes containing trisodium citrate as anticoagulant (final concentration 0.19% w/v). Platelet rich plasma (PRP) was harvested after slow centrifugation at 170 g for 12 min. and 0.2 ml aliquots were dispensed into plastic cuvettes and stored at room temperature throughout the experiment.
Aliquots of 0.2 ml PRP from each sample were treated with ADP, adrenalin, collagen or arachidonate, until the threshold concentrations of these aggregating agents had been reached. The threshold concentration is defined as the minimum whcih will produce irreversible aggregation. Once established, the threshold concentration was used to challenge test samples of each of the 2 test compounds or vehicle (DMSO) which had been incubated for 1 min. at 37 C. in the holding cell of the agregometer, prior to addition of the aggregating agent.
This was reported as the final concentration in the PRP after addition of 2.5-10 ul of test substance.

Data set [3] concerns carragenin-induced edema. The data set is described as follows: Carragenin-induced edema test (Winter). The data set is classed as in vivo, rat. How it is done:
This effect was measured with an experimental model reproducing acute inflammation in rats: the carragenin-induced edema test according to C.

Data set [4] is described as follows: in vivo. The settings on record: mouse, mice.
Data set [5] in a line: in vivo. The note with it: rat, rats.
The test system of data set [6] is gastric mucosa. Briefly: Gastric tolerance (ulcerogenic activity). The data set is classed as in vivo, male Wistar rats. The settings on record: 4 days; for Mean Severity: scale 0-5. How it is done:
This was studied by conducting tests of ulcerogenic activity in male Wistar rats, weighing 180 g on the average, in groups of 10 animals each. Three doses of each substance were given, and one group of animals was treated with vehicle only in a volume of 10 ml/kg bodyweight. Each dose was given orally for four consecutive days; on the fifth day, the rats were killed and autopsied. The ulcerogenic effect was assessed according to the following scale:
(1) each hemorrhage point ≥1 mm was evaluated as 1 lesion
(2) hemorrhage points smaller than 1 mm were counted as follows:
(b) from 1 to 19:2 lesions
(c) from 1 to 29:3 lesions
(2) gastric mucosa irritation: 1
(3) hemorrahge points <1 mm: 2
(4) hemorrhage points between 1 and 3 mm: 3
(5) hemorrhage points >3 mm: 4
This scale was used to calculate the following gastric damage index: [formula]

The mark [7] stands for this setting: ADP 2 μmol/l, dose 1 V/ml (Table II).
Where [8] appears, read: ADP 5 μmol/l, dose 1 V/ml (Table II).
The mark [9] stands for this setting: ADP 7.08 μmol/l, dose 1 /ml (Table I).
Setting [10] is: ADP 7.08 μmol/l, dose 5 /ml (Table I).

On to “1-Methyl-5-p-methylbenzoylpyrrol-2-acetate of 7-(3-oxypropyl)theophylline [(C)]”, for which the “% Inhibition” value was 36% in data set [1] (setting [7]); 27% in data set [1] (setting [8]); 22% in data set [1] (setting [9]); 75% in data set [1] (ADP 7.08 μmol/l, dose 2,5 /ml (Table I)); 90% in data set [1] (setting [10]). Besides, the “Minimum Effective Concentration (Final in PRP)” value in data set [2] (ADP, volunteer 1 (person delta for (A), person for (C))) was 100 µM; in data set [2] (ADP, volunteer 2 (donor gamma)), 100 µM; in data set [2] (ADP, volunteer 3 (person alpha for (A), person for (C))), 250 µM; in data set [2] (Adrenalin, volunteer 1), 100 µM; in data set [2] (Adrenalin, volunteer 2 (donor gamma)), 0.25 µM; in data set [2] (Adrenalin, volunteer 3), 100 µM. For the same compound, the “Minimum Effective Concentration (Final in PRP)” value worked out at 400 µM in data set [2] (Arachidonate, volunteer 1); 10 µM in data set [2] (Arachidonate, volunteer 2 (donor gamma)); 10 µM in data set [2] (Arachidonate, volunteer 3); 350 µM in data set [2] (Collagen, volunteer 1); 250 µM in data set [2] (Collagen, volunteer 2 (donor gamma)); 100 µM in data set [2] (Collagen, volunteer 3). The “% Edema Inhibition” value is 38,0% in data set [3] (I.P., 10 mg/kg, 3 h); 36,2% in data set [3] (I.P., 10 mg/kg, 6 h); 0,0% in data set [3] (I.P., 10 mg/kg, 24 h); 53,1% in data set [3] (I.P., 50 mg/kg, 3 h); 50,0% in data set [3] (I.P., 50 mg/kg, 6 h); 2,0% in data set [3] (I.P., 50 mg/kg, 24 h). In addition, the “% Edema Inhibition” value in data set [3] (I.P., 100 mg/kg, 3 h) is given as 69,5%; in data set [3] (I.P., 100 mg/kg, 6 h), 62,0%; in data set [3] (I.P., 100 mg/kg, 24 h), 10,0%; in data set [3] (OS, 10 mg/kg, 3 h), 40,2%; in data set [3] (OS, 10 mg/kg, 6 h), 34,0%; in data set [3] (OS, 10 mg/kg, 24 h), 0,0%. The “% Edema Inhibition” value in data set [3] (OS, 50 mg/kg, 3 h) is recorded as 59,0%; in data set [3] (OS, 50 mg/kg, 6 h) it was 57,0%; in data set [3] (OS, 50 mg/kg, 24 h), 22,2%; in data set [3] (OS, 100 mg/kg, 3 h), 70,0%; in data set [3] (OS, 100 mg/kg, 6 h), 66,1%; in data set [3] (OS, 100 mg/kg, 24 h), 31,0%.

As to `Cn1c(=O)c2c(ncn2CCCOC(=O)Cc2ccc(-n3cccc3)cc2)n(C)c1=O` [(D)], the “% Inhibition” value in data set [1] (setting [7]) was 31%; in data set [1] (setting [8]) it was 24%. Moreover, the “% Edema Inhibition” value in data set [3] (I.P., 10 mg/kg, 3 h) is given as 31,8%; in data set [3] (I.P., 10 mg/kg, 6 h), 32,7%; in data set [3] (I.P., 10 mg/kg, 24 h) it was 1,0%; in data set [3] (I.P., 50 mg/kg, 3 h), 50,1%; in data set [3] (I.P., 50 mg/kg, 6 h), 45,9%; in data set [3] (I.P., 50 mg/kg, 24 h) it was 8,6%. Also, the “% Edema Inhibition” value was 67,0% in data set [3] (I.P., 100 mg/kg, 3 h); 65,4% in data set [3] (I.P., 100 mg/kg, 6 h); 9,6% in data set [3] (I.P., 100 mg/kg, 24 h); 39,0% in data set [3] (OS, 10 mg/kg, 3 h); 32,0% in data set [3] (OS, 10 mg/kg, 6 h); 0,0% in data set [3] (OS, 10 mg/kg, 24 h). Besides, the “% Edema Inhibition” value in data set [3] (OS, 50 mg/kg, 3 h) is reported as 53,1%; in data set [3] (OS, 50 mg/kg, 6 h), 52,0%; in data set [3] (OS, 50 mg/kg, 24 h), 11,6%; in data set [3] (OS, 100 mg/kg, 3 h) it was 66,8%; in data set [3] (OS, 100 mg/kg, 6 h), 64,1%; in data set [3] (OS, 100 mg/kg, 24 h) it was 16,7%. In addition, the LD50 in data set [4] (ip, I.P.) stood at 780 mg/kg; in data set [4] (po, OS), 1100 mg/kg; in data set [5] (ip, I.P.) it was 675 mg/kg; in data set [5] (po, OS), 1000 mg/kg.

On to `Cc1ccc(C(=O)c2ccc(CC(=O)NCC(=O)OCCn3cnc4c3c(=O)n(C)c(=O)n4C)n2C)cc1` [(E)], for which the entries for the “% Inhibition” value in data set [1] (setting [7]) and in data set [1] (setting [8]) were 35% and 29%, respectively. Also, the “% Edema Inhibition” value is reported as 31,8% in data set [3] (I.P., 10 mg/kg, 3 h); 29,0% in data set [3] (I.P., 10 mg/kg, 6 h); 0,0% in data set [3] (I.P., 10 mg/kg, 24 h); 56,9% in data set [3] (I.P., 50 mg/kg, 3 h); 54,8% in data set [3] (I.P., 50 mg/kg, 6 h); 12,0% in data set [3] (I.P., 50 mg/kg, 24 h). Also, the “% Edema Inhibition” value in data set [3] (I.P., 100 mg/kg, 3 h) is recorded as 80,0%; in data set [3] (I.P., 100 mg/kg, 6 h) it was 76,9%; in data set [3] (I.P., 100 mg/kg, 24 h) it was 23,0%; in data set [3] (OS, 10 mg/kg, 3 h), 34,0%; in data set [3] (OS, 10 mg/kg, 6 h), 33,8%; in data set [3] (OS, 10 mg/kg, 24 h), 0,0%. Further, the “% Edema Inhibition” value is reported as 54,4% in data set [3] (OS, 50 mg/kg, 3 h); 49,8% in data set [3] (OS, 50 mg/kg, 6 h); 10,0% in data set [3] (OS, 50 mg/kg, 24 h); 78,8% in data set [3] (OS, 100 mg/kg, 3 h); 79,0% in data set [3] (OS, 100 mg/kg, 6 h); 32,6% in data set [3] (OS, 100 mg/kg, 24 h). Moreover, the LD50 was 1100 mg/kg in data set [4] (ip, I.P.); 1400 mg/kg in data set [4] (po, OS); 987 mg/kg in data set [5] (ip, I.P.); 1340 mg/kg in data set [5] (po, OS).

Consider `Cc1ccc(C(=O)c2ccc(CC(=O)O)n2C)cc1` [Na Tolmetin 2H2 O, 1-methyl-5-p-methylbenzoylpyrrol-2-acetic acid, reference compound], for which the “% Edema Inhibition” value is listed as 32,0% in data set [3] (I.P., 10 mg/kg, 3 h); 23,0% in data set [3] (I.P., 10 mg/kg, 6 h); 0,0% in data set [3] (I.P., 10 mg/kg, 24 h); 48,6% in data set [3] (I.P., 50 mg/kg, 3 h); 53,2% in data set [3] (I.P., 50 mg/kg, 6 h); 0,0% in data set [3] (I.P., 50 mg/kg, 24 h). The “% Edema Inhibition” value in data set [3] (I.P., 100 mg/kg, 3 h) is 67,3%; in data set [3] (I.P., 100 mg/kg, 6 h), 55,1%; in data set [3] (I.P., 100 mg/kg, 24 h), 0,0%; in data set [3] (OS, 10 mg/kg, 3 h) it was 30,5%; in data set [3] (OS, 10 mg/kg, 6 h), 24,0%; in data set [3] (OS, 10 mg/kg, 24 h), 0,0%. Besides, the “% Edema Inhibition” value in data set [3] (OS, 50 mg/kg, 3 h) was 49,0%; in data set [3] (OS, 50 mg/kg, 6 h), 52,0%; in data set [3] (OS, 50 mg/kg, 24 h) it was 0,0%; in data set [3] (OS, 100 mg/kg, 3 h) it was 59,0%; in data set [3] (OS, 100 mg/kg, 6 h) it was 54,2%; in data set [3] (OS, 100 mg/kg, 24 h), 0,0%. For the same compound, the entries for the “% incidence 10” value in data set [6] (50 mg/kg oral), in data set [6] (100 mg/kg oral) and in data set [6] (200 mg/kg oral) were 7 %/10, 10 %/10 and 10 %/10, respectively. Moreover, the “Mean No. lesions” value in data set [6] (50 mg/kg oral) was 2; in data set [6] (100 mg/kg oral) it was 2,5; in data set [6] (200 mg/kg oral), 3. For the same compound, the “Mean Severity” value in data set [6] (50 mg/kg oral) is reported as 2; in data set [6] (100 mg/kg oral), 3,5; in data set [6] (200 mg/kg oral) it was 4.

Regarding `CC(=O)Oc1ccccc1C(=O)O` [aspirin, reference compound], the “% Inhibition” value was determined as 29% in data set [1] (setting [7]); 19% in data set [1] (setting [8]); 15% in data set [1] (setting [9]); 60% in data set [1] (setting [10]); 100% in data set [1] (ADP 7.08 μmol/l, dose 10 /ml (Table I)).
